These results are taken from PubChem BioAssay AID2078 (The Scripps Research Institute Molecular Screening Center, 2009).

The test system of this test is Cytotoxicity. In words: STAT3 blockade with qPCR and toxicity readouts – cell-based, STAT1 panel, cytotoxicity, late-stage follow-up (AID 2078). Particulars: STAT3/STAT1 inhibition panel, cell reporter assay.

For `c1ccc(CC2CCN(c3ncnc4sccc34)CC2)cc1`, the CC50 was more than 55.7 µM.
